# Measured values from PMC11033359 (Frontiers in Pharmacology, 2024).
# Entries after “also recorded” stand apart in the source; their conditions may differ. Where two headings read alike, the source gives them in different places.
# How the values were obtained:
# [1] = system: HLMs (human liver microsomes); experiment: Inhibition of tofacitinib metabolism (M8 formation) in HLMs; format: in vitro ADME; conditions: for Inhibition type / Ki: substrate tofacitinib; for IC50: substrate tofacitinib at about Km, 30 min, 37°C
# Description: (§1) All except NADPH were mixed on ice.
# (§2) Statistical analysis was conducted using Student's t-test.
# [2] = molecular target: recombinant human CYP3A4 (rCYP3A4) (Homo sapiens, UniProt P08684); experiment: Inhibition of tofacitinib metabolism (M8 formation) by rCYP3A4
# Chain of recombinant human CYP3A4 (rCYP3A4) (P08684 whole entry): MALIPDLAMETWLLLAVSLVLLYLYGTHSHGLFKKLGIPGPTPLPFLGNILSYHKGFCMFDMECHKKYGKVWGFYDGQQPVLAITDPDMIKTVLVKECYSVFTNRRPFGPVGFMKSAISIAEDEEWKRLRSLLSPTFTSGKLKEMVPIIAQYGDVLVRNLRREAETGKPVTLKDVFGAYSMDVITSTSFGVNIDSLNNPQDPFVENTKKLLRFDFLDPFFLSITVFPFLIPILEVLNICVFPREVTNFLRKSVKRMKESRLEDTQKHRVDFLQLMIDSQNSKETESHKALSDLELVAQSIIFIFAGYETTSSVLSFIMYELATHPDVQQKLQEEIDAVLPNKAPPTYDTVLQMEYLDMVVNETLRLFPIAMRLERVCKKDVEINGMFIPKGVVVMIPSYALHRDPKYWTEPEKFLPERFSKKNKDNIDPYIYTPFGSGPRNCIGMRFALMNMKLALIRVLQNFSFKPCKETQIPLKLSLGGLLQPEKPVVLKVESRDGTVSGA
# Description: as §1, §2
# [3] = system: RLMs (rat liver microsomes); experiment: Inhibition of tofacitinib metabolism (M8 formation) in RLMs by furanocoumarins; format: in vitro ADME; conditions: for inhibitory effectiveness on RLMs (screening, M8 content): 100 μM furanocoumarin, 0.3 mg/mL RLMs; for IC50: substrate tofacitinib at about Km, 30 min, 37°C
# Description: as §1, §2
# in vivo = experiment: in vivo; design: species or system Sprague Dawley rats; conditions: male, Sprague-Dawley, rat, po, 10 mg/kg
# Description: Male Sprague Dawley (SD) rats (average weighing 220–250) g were purchased from the laboratory animal center of Wenzhou Medical University, Zhejiang Province, China. Animals were maintained in a controlled environment with a 12 h light-dark cycle at 20°C–25°C and 55% ± 15% relative humidity. Diet intake was not allowed for a period of 12 h prior to the experiment. Then, water was allowed to be free and food was provided after the experiment. All the experimental procedures and protocols were reviewed and approved by the animal ethics committee of Wenzhou Medical University according to the guide for the care and use of laboratory animals (xmsq2021-0409). 36 male rats aged 8–10 weeks were randomly selected and divided into six groups for gavage. […] Blood (300 μL) was collected from the tail veins into 1.5 mL tubes at 5, 15, and 30 min and 1, 2, 3, 4, 6, 8, 12, and 24 h after administering the drugs. The supernatant was collected and stored at −20°C after centrifugation at 4000 rpm for 10 min. The samples were restored to RT before analysis. 50 μL sample was accurately drawn to 1.5 mL of EP tube, 150 μL of midazolam internal standard solution (200 ng/mL) was added to the tube, then placed and vortexed for 15 s. After centrifugation at 13, 000 rpm for 15 min, 150 µL of supernatant was prepared for the UPLC-MS/MS system to analyze.
# as §2
# [4] = system: HLMs (human liver microsomes); experiment: Michaelis-Menten kinetics of tofacitinib metabolism (M8 formation) in HLMs; format: in vitro ADME; conditions: tofacitinib metabolism to M8, no inhibitor, n = 3
# Description: as §1, §2
# [5] = system: RLMs (rat liver microsomes); experiment: Michaelis-Menten kinetics of tofacitinib metabolism (M8 formation) in RLMs; format: in vitro ADME; conditions: tofacitinib metabolism to M8, no inhibitor, n = 3
# Description: as §1, §2
compound,measurement,setting,value
"COc1c2ccoc2cc2oc(=O)ccc12 [Bergapten, 5-methoxy-psoralen]",Inhibition type,[1],Competitive inhibition
same,Ki,[1],189 nM
same,IC50,[1],2650 nM
same,Inhibition type,[1]; listed as bergapten,competitively inhibited
same,IC50,[2],1420 nM
same,Ki,[2],1220 nM
same,Inhibition type,"[2]; rCYP3A4, substrate tofacitinib",Competitive inhibition
same,Inhibition type,"[2]; rCYP3A4, substrate tofacitinib, listed as bergapten",competitively inhibited
same,"inhibitory effectiveness on RLMs (screening, M8 content)",[3],potent inhibitory activity
same,Inhibition type,"[3]; RLMs, substrate tofacitinib",Competitive inhibition
same,Ki,"[3]; RLMs, substrate tofacitinib",443 nM
same,IC50,[3]; RLMs,2620 nM
same,Inhibition type,"[3]; RLMs, substrate tofacitinib, listed as bergapten",competitively inhibited
"C[C@@H]1CCN(C(=O)CC#N)C[C@@H]1N(C)c1ncnc2[nH]ccc12 [tofacitinib, Tofacitinib]",Km,[1]; bergapten 0 μM,47.8 µM
same,Vmax,[1]; bergapten 0 μM,2.973 M8 area ratio
same,Km,[1]; bergapten 0.5 μM,53.1 µM
same,Vmax,[1]; bergapten 0.5 μM,2.960 M8 area ratio
same,Km,[1]; bergapten 1 μM,76.7 µM
same,Vmax,[1]; bergapten 1 μM,3.018 M8 area ratio
same,Km,[1]; bergapten 2 μM,190 µM
same,Vmax,[1]; bergapten 2 μM,4.088 M8 area ratio
same,Km,[1]; bergapten 4 μM,~5860 µM
same,Vmax,[1]; bergapten 4 μM,∼43.85 M8 area ratio
same,Km,[1]; isopsoralen 0 μM,61.7 µM
same,Vmax,[1]; isopsoralen 0 μM,1.886 M8 area ratio
same,Km,[1]; isopsoralen 5 μM,71.1 µM
same,Vmax,[1]; isopsoralen 5 μM,1.938 M8 area ratio
same,Km,[1]; isopsoralen 10 μM,134 µM
same,Vmax,[1]; isopsoralen 10 μM,1.718 M8 area ratio
same,Km,[1]; isopsoralen 20 μM,432 µM
same,Vmax,[1]; isopsoralen 20 μM,2.148 M8 area ratio
same,Km,[1]; isopsoralen 40 μM,930 µM
same,Vmax,[1]; isopsoralen 40 μM,2.589 M8 area ratio
same,CLz/F,in vivo,144 ± 39.3 mL/min/kg
same,t1/2z,in vivo,1.73 ± 0.44 h
same,MRT last,in vivo; MRT(0-t),2.1 ± 0.27 h
same,MRT inf,in vivo; MRT(0-∞),2.19 ± 0.28 h
same,Km,[4],65.8 ± 4.75 µM
same,Vmax,[4],2.802 ± 0.0842 M8 area ratio
same,Km,[5],76.2 ± 4.51 µM
same,Vmax,[5],7.259 ± 0.1879 M8 area ratio
same,Km,"[3]; RLMs, bergapten 0 μM",65.5 µM
same,Vmax,"[3]; RLMs, bergapten 0 μM",8.021 M8 area ratio
same,Km,"[3]; RLMs, bergapten 0.5 μM",72.3 µM
same,Vmax,"[3]; RLMs, bergapten 0.5 μM",8.054 M8 area ratio
same,Km,"[3]; RLMs, bergapten 1 μM",88.6 µM
same,Vmax,"[3]; RLMs, bergapten 1 μM",8.111 M8 area ratio
same,Km,"[3]; RLMs, bergapten 2 μM",160 µM
same,Vmax,"[3]; RLMs, bergapten 2 μM",8.689 M8 area ratio
same,Km,"[3]; RLMs, bergapten 4 μM",411 µM
same,Vmax,"[3]; RLMs, bergapten 4 μM",9.555 M8 area ratio
same,Km,"[3]; RLMs, isopsoralen 0 μM",77.7 µM
same,Vmax,"[3]; RLMs, isopsoralen 0 μM",5.190 M8 area ratio
same,Km,"[3]; RLMs, isopsoralen 5 μM",114 µM
same,Vmax,"[3]; RLMs, isopsoralen 5 μM",5.555 M8 area ratio
same,Km,"[3]; RLMs, isopsoralen 10 μM",259 µM
same,Vmax,"[3]; RLMs, isopsoralen 10 μM",5.529 M8 area ratio
same,Km,"[3]; RLMs, isopsoralen 20 μM",538 µM
same,Vmax,"[3]; RLMs, isopsoralen 20 μM",4.503 M8 area ratio
same,Km,"[3]; RLMs, isopsoralen 40 μM",410 µM
same,Vmax,"[3]; RLMs, isopsoralen 40 μM",2.664 M8 area ratio
O=c1ccc2ccc3occc3c2o1 [Isopsoralen],Inhibition type,[1],competitive suppression; also recorded: Competitive inhibition
same,Ki,[1],1770 nM
same,IC50,[1],12300 nM
same,risk of DDI with tofacitinib (from Ki),[2],medium
same,IC50,"[2]; IC50, rCYP3A4, substrate tofacitinib at about Km, 30 min, 37°C",17100 nM
same,Ki,"[2]; Ki, rCYP3A4, substrate tofacitinib",15400 nM
same,Inhibition type,"[2]; rCYP3A4, substrate tofacitinib",competitive suppression; also recorded: Competitive inhibition
same,"inhibitory effectiveness on RLMs (screening, M8 content)",[3],potent inhibitory activity
same,Inhibition type,"[3]; RLMs, substrate tofacitinib",competitive suppression; also recorded: Competitive inhibition
same,IC50,[3]; RLMs,19300 nM
